According to the supplement of paper PMC11061612:

Columns and labels:
[1] = compound: CC(C)n1c(=O)n(C)c2cnc3cc(F)c(-c4ccc(OCCCN5CCCCC5)nc4)cc3c21 [AZD1390]; settings: max 0.3 µM
Method in brief: (§1)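 Cancer cell lines were seeded into 1536-well plates in 7.5 μl medium (DMEM/F12 or RPMI, 10% FBS), held 24 hours at 37°C and 5% CO2, and dosed for 72 hours with final DMSO typically 0.2%. Luminescence from CellTiter-Glo 2.0, scaled between blank-well and DMSO-well means, served as viability. The single-agent IC50 was obtained from dose-response fits with a non-linear mixed effects model, each fit being a two-parameter logistic curve.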

[2] = compound: CC(=O)c1c(C)c2cnc(Nc3ccc(N4CCNCC4)cn3)nc2n(C2CCCC2)c1=O [Palbociclib]; settings: max 10 µM
Method in brief: as §1

[3] = compound: CC1=C(C(=CC=C1)Cl)NC(=O)C2=CN=C(S2)NC3=CC(=NC(=N3)C)N4CCN(CC4)CCO [Dasatinib]; settings: max 2 µM
Method in brief: as §1

[4] = compound: CS(=O)(=O)CCNCc1ccc(-c2ccc3ncnc(Nc4ccc(OCc5cccc(F)c5)c(Cl)c4)c3c2)o1 [Lapatinib]; settings: max 10 µM
Method in brief: as §1

[5] = compound: COc1cccc(OCCCN)c1-c1cc(Nc2cnc(C#N)cn2)n[nH]1 [Prexasertib]; settings: max 1 µM
Method in brief: as §1

[6] = compound: C1CN(CCC1(C(=O)N[C@@H](CCO)C2=CC=C(C=C2)Cl)N)C3=NC=NC4=C3C=CN4 [Capivasertib]; settings: max 10 µM
Method in brief: as §1

[7] = compound: CN(C)CCCOc1ccc(-c2ccc3ncc4c(c3c2)n(C2CCOCC2)c(=O)n4C)cn1 [AZD0156]; settings: max 3 µM
Method in brief: as §1

[8] = compound: COc1cccc2c1C(=O)c1c(O)c3c(c(O)c1C2=O)C[C@@](O)(C(=O)CO)C[C@@H]3O[C@H]1C[C@H](N)[C@H](O)[C@H](C)O1 [Doxorubicin]; settings: max 1 µM
Method in brief: as §1

[9] = compound: C[C@@H](c1ccc2nccn2c1)n1nnc2ncc(-c3cnn(C)c3)nc21 [Savolitinib]; settings: max 1 µM
Method in brief: as §1

[10] = compound: CCc1c2c(nc3ccc(O)cc13)-c1cc3c(c(=O)n1C2)COC(=O)[C@]3(O)CC [SN-38]; settings: max 0.3 µM
Method in brief: as §1

[11] = compound: Cc1nc(-c2cn3c(n2)-c2ccc(-c4cnn(C(C)(C)C(N)=O)c4)cc2OCC3)n(C(C)C)n1 [Taselisib]; settings: max 10 µM
Method in brief: as §1

[12] = compound: CN(CC[C@H](CSC1=CC=CC=C1)NC2=C(C=C(C=C2)S(=O)(=O)NC(=O)C3=CC=C(C=C3)N4CCC(CC4)[C@H](C5=CC=CC=C5C6=CC=C(C=C6)Cl)O)S(=O)(=O)C(F)(F)F)CCO [AZD4320]; settings: max 1 µM
Method in brief: as §1

[13] = compound: CC(=O)Nc1cccc(-n2c(=O)n(C3CC3)c(=O)c3c(Nc4ccc(I)cc4F)n(C)c(=O)c(C)c32)c1 [Trametinib]; settings: max 1 µM
Method in brief: as §1

[14] = compound: C[C@@H](Nc1cc(F)cc(F)c1)c1cc(C(=O)N(C)C)cc2c(=O)cc(N3CCOCC3)oc12 [AZD8186]; settings: max 3 µM
Method in brief: as §1

[15] = compound: C=CCn1c(=O)c2cnc(Nc3ccc(N4CCN(C)CC4)cc3)nc2n1-c1cccc(C(C)(C)O)n1 [AZD1775]; settings: max 3 µM
Method in brief: as §1

[16] = compound: COc1cc2ncnc(Nc3ccc(F)c(Cl)c3)c2cc1OCCCN1CCOCC1 [Gefitinib]; settings: max 10 µM
Method in brief: as §1

[17] = compound: O=C(c1cc(Cc2n[nH]c(=O)c3ccccc23)ccc1F)N1CCN(C(=O)C2CC2)CC1 [Olaparib]; settings: max 10 µM
Method in brief: as §1

[18] = compound: COc1nnc2ccc(N3CCC(c4ccc(OCCN5CCN(C)C(=O)[C@H]5C)cc4)CC3)nn12 [AZD5153]; settings: max 1 µM
Method in brief: as §1

[19] = compound: C[C@@H](Oc1cc(-c2cnn(C3CCNCC3)c2)cnc1N)c1c(Cl)ccc(F)c1Cl [Crizotinib]; settings: max 10 µM
Method in brief: as §1

[20] = compound: C[C@@H]1COCCN1C2=NC(=NC(=C2)C3(CC3)[S@](=N)(=O)C)C4=C5C=CNC5=NC=C4 [AZD6738]; settings: max 10 µM
Method in brief: as §1

[21] = compound: Cn1cnc2c(F)c(Nc3ccc(Br)cc3Cl)c(C(=O)NOCCO)cc21 [Selumetinib]; settings: max 10 µM
Method in brief: as §1

[22] = compound: COc1cc(Nc2ncc3c(n2)-c2ccc(Cl)cc2C(c2c(F)cccc2OC)=NC3)ccc1C(=O)O [Alisertib]; settings: max 10 µM
Method in brief: as §1

[23] = compound: CCN(CCO)CCCOc1ccc2c(Nc3cc(CC(=O)Nc4cccc(F)c4)[nH]n3)ncnc2c1 [AZD2811]; settings: max 1 µM
Method in brief: as §1

[24] = compound: Cc1cc2ncnn2cc1Nc1ncc2c(n1)n(C1CCOCC1)c(=O)n2C [AZD7648]; settings: max 10 µM
Method in brief: as §1

[25] = compound: Cc1c2c(nn1C)CSCc1cc(n(C)n1)CSc1cc(c3ccccc3c1)OCCCc1c(C(=O)O)n(C)c3c-2c(Cl)ccc13 [AZD5991]; settings: max 1 µM
Method in brief: as §1

[26] = compound: CC1(C)CCC(CN2CCN(c3ccc(C(=O)NS(=O)(=O)c4ccc(NCC5CCOCC5)c([N+](=O)[O-])c4)c(Oc4cnc5[nH]ccc5c4)c3)CC2)=C(c2ccc(Cl)cc2)C1 [Venetoclax]; settings: max 1 µM
Method in brief: as §1

[27] = compound: CC1=CN2[C@@H](C1)C=NC3=CC(=C(C=C3C2=O)OC)OCCCCCOC4=C(C=C5C(=C4)N=C[C@@H]6CC(=CN6C5=O)C)OC [SG3199]; settings: max 0.001 µM
Method in brief: as §1

Row | Cell Line | IC50, cell viability 72 h [1] | IC50, cell viability 72 h [2] | IC50, cell viability 72 h [3] | IC50, cell viability 72 h [4] | IC50, cell viability 72 h [5] | IC50, cell viability 72 h [6] | IC50, cell viability 72 h [7] | IC50, cell viability 72 h [8] | IC50, cell viability 72 h [9] | IC50, cell viability 72 h [10] | IC50, cell viability 72 h [11] | IC50, cell viability 72 h [12] | IC50, cell viability 72 h [13] | IC50, cell viability 72 h [14] | IC50, cell viability 72 h [15] | IC50, cell viability 72 h [16] | IC50, cell viability 72 h [17] | IC50, cell viability 72 h [18] | IC50, cell viability 72 h [19] | IC50, cell viability 72 h [20] | IC50, cell viability 72 h [21] | IC50, cell viability 72 h [22] | IC50, cell viability 72 h [23] | IC50, cell viability 72 h [24] | IC50, cell viability 72 h [25] | IC50, cell viability 72 h [26] | IC50, cell viability 72 h [27]
1 | 42-MG-BA (Glioblastoma) | > 300 nM | > 10 µM | 54.6 nM | > 10 µM | 25.3 nM | 2.25 µM | > 3000 nM | 163 nM | > 1000 nM | 7.39 nM | 0.627 µM | > 1000 nM | > 1000 nM | 2530 nM | 1050 nM | > 10 µM | > 10 µM | 401 nM | > 10 µM | 8.57 µM | > 10 µM | 8.55 µM | > 1000 nM | > 10 µM | 299 nM | > 1000 nM | > 1 nM
2 | AGS (Gastric Carcinoma) | > 300 nM | > 10 µM | > 2000 nM | > 10 µM | 839 nM | > 10 µM | > 3000 nM | 151 nM | > 1000 nM | 22.6 nM | 0.577 µM | > 1000 nM | 11.9 nM | > 3000 nM | 455 nM | > 10 µM | > 10 µM | 251 nM | > 10 µM | 4.93 µM | 0.767 µM | > 10 µM | > 1000 nM | > 10 µM | > 1000 nM | > 1000 nM | > 1 nM
3 | COLO-205 (Colorectal Carcinoma) | > 300 nM | 7.97 µM | > 2000 nM | > 10 µM | 782 nM | > 10 µM | > 3000 nM | 518 nM | > 1000 nM | > 300 nM | 4.25 µM | > 1000 nM | 6.16 nM | > 3000 nM | > 3000 nM | > 10 µM | > 10 µM | 499 nM | 4.11 µM | > 10 µM | 0.302 µM | 0.743 µM | 116 nM | > 10 µM | > 1000 nM | > 1000 nM | > 1 nM
4 | DEL (T-Cell Non-Hodgkin's Lymphoma) | > 300 nM | 3.53 µM | > 2000 nM | 8.54 µM | 5.4 nM | > 10 µM | 2810 nM | 91.3 nM | > 1000 nM | 2.3 nM | > 10 µM | > 1000 nM | > 1000 nM | > 3000 nM | 178 nM | > 10 µM | 8.26 µM | 27.5 nM | 0.12 µM | 0.707 µM | > 10 µM | 0.0203 µM | 151 nM | > 10 µM | 28.7 nM | > 1000 nM | > 1 nM
5 | Daoy (Other Solid Carcinomas) | > 300 nM | > 10 µM | > 2000 nM | > 10 µM | 46.7 nM | > 10 µM | > 3000 nM | 141 nM | > 1000 nM | 4.44 nM | 4.73 µM | > 1000 nM | > 1000 nM | > 3000 nM | 398 nM | > 10 µM | > 10 µM | 489 nM | > 10 µM | 3.18 µM | > 10 µM | 0.818 µM | > 1000 nM | > 10 µM | > 1000 nM | > 1000 nM | > 1 nM
6 | EC-GI-10 (Esophageal Squamous Cell Carcinoma) | > 300 nM | > 10 µM | > 2000 nM | 0.77 µM | 171 nM | > 10 µM | > 3000 nM | > 1000 nM | > 1000 nM | 17.4 nM | 0.496 µM | > 1000 nM | 283 nM | > 3000 nM | 516 nM | 3.7 µM | > 10 µM | > 1000 nM | > 10 µM | 8.22 µM | > 10 µM | 9.24 µM | > 1000 nM | > 10 µM | > 1000 nM | > 1000 nM | > 1 nM
7 | ES4 (Ewing's Sarcoma) | > 300 nM | > 10 µM | > 2000 nM | > 10 µM | 24.3 nM | > 10 µM | > 3000 nM | 431 nM | > 1000 nM | 8.83 nM | 3.24 µM | > 1000 nM | > 1000 nM | > 3000 nM | > 3000 nM | > 10 µM | > 10 µM | 246 nM | > 10 µM | 2.03 µM | > 10 µM | > 10 µM | > 1000 nM | > 10 µM | > 1000 nM | > 1000 nM | > 1 nM
